According to publication PMC11079024, “Identification of a family of species-selective complex I inhibitors as potential anthelmintics” (Nature Communications, 2024):
Several values for one entry are separate records, joined by “and”; a condition that tells them apart may be missing. Equal values may be shown once. Read-outs that look alike come from different tables or passages of the source.

How the values were obtained:
[1] = molecular target: C. elegans complex II (succinate dehydrogenase) (Caenorhabditis elegans, UniProt O62215+P41956+Q09545); experiment: In vitro complex II activity assay, C. elegans mitochondria; assay type: biochemical; conditions: for Absorbance DCIP [600nm], complex II: single replicate
Chain of C. elegans complex II (succinate dehydrogenase) (P41956 30-182): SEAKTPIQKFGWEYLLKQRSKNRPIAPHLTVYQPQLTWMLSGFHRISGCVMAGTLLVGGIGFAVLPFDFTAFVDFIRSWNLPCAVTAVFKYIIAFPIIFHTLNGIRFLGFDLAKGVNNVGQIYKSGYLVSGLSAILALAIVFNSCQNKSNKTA
Chain of C. elegans complex II (succinate dehydrogenase) (Q09545 22-298): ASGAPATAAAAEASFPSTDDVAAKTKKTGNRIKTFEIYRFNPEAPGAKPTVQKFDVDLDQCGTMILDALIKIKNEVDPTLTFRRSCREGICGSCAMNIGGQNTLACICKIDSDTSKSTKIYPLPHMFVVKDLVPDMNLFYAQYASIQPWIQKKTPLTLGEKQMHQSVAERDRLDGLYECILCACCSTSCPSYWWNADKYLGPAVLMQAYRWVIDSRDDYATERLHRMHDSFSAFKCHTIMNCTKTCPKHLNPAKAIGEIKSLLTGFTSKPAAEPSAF
Chain of C. elegans complex II (succinate dehydrogenase) (Q09508 32-646, further chain): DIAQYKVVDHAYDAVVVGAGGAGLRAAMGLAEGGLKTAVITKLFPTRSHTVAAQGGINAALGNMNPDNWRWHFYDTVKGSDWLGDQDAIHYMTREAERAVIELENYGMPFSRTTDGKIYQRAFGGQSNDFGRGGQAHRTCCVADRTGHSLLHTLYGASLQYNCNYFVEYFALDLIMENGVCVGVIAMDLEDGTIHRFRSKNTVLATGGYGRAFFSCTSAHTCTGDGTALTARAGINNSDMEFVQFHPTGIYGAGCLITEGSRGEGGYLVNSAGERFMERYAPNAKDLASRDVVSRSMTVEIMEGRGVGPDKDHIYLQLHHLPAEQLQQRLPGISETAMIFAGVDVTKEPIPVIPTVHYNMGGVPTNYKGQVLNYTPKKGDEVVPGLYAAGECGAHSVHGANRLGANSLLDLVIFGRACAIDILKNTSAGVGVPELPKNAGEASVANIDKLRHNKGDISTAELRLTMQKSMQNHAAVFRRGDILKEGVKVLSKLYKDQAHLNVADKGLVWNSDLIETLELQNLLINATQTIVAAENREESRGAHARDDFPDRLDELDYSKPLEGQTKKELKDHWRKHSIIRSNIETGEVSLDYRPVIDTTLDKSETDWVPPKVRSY
Chain of C. elegans complex II (succinate dehydrogenase) (O62215 31-145): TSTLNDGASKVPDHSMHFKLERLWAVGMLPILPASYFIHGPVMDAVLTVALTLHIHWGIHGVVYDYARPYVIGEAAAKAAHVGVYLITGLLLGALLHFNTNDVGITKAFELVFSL
Procedure: (§1) Mitochondria were isolated from the following free-living nematode strains: C. elegans—N2, CB3474, ECA882, ECA917, ECA1075, ECA1080; C. briggsae—AF16; P. pacificus—PS312; and P. hermaphrodita—B178. With the exception of the P. hermaphrodita strain B178, adult worms of each strain were grown in bulk through liquid culture to obtain mitochondria in sufficient quantities. Due to poor growth in liquid media, mixed stage populations of P. hermaphrodita were washed off and collected from NGM plates seeded with OP50. The isolation of mitochondria from all free-living nematode strains followed the protocol previously outlined in Burns et al.[24]. In brief, a 1 L saturated culture of E. coli HB101 was concentrated 20-fold in 50 mL complete S-medium. ~500,000 L1 worms synchronized from an embryo preparation performed the day prior were added to the S-media/HB101 suspension and grown to adulthood over the course of 3.5 days at 20 °C with shaking at 165 rpm. Following growth, worms were collected in 10 ×15 mL conical tubes and washed 7 times in M9 buffer. Worm suspensions were then combined into a single 15 mL conical tube and diluted to a final volume of 15 mL with M9 buffer. 1 mL aliquots of worm suspension were then distributed to 15 × 1.5 mL screw-cap microcentrifuge tubes and were pelleted at 500 g for 1 min. Excess M9 was aspirated without disturbing the worm pellet. 600 μL ice-cold isolate buffer A (250 mM sucrose, 10 mM Tris (pH 7.5), 1 mM EDTA, 1 mM PMSF (freshly prepared)) and 300 μL cold glass beads were then added to each tube. Tubes were incubated on ice for 10 min, and the worms were then lysed by bead beating (6 x 30 s, with 1 min cooling intervals). Tubes containing worm lysate were centrifuged at 1,000 g for 10 min at 4 °C and the supernatant was transferred to 15 new microcentrifuge tubes on ice. The tubes were centrifuged a second time at 1,000 g for 10 min at 4 °C and the supernatant was once again transferred to 15 new microcentrifuge tubes on ice. These tubes were then centrifuged at 16,000 g for 10 min at 4 °C. The resulting mitochondrial pellet was washed twice by re-suspension in 300 μL of ice-cold isolate buffer B (250 mM sucrose, 10 mM Tris (pH 7.5), 1 mM EDTA). Following the final wash, isolation buffer was aspirated from each tube and the pellets were flash-frozen in ethanol/dry ice and stored at −80 °C until needed.
(§2) The enzymatic activities of individual ETC complexes (I-IV) were assessed spectrophotometrically in isolated mitochondria using a Varioskan LUX Multimode plate reader (ThermoFisher Scientific). Mitochondrial pellets previously isolated were thawed on ice and resuspended in ice-cold isolation buffer (250 mM sucrose, 10 mM Tris (pH 7.5), 1 mM EDTA). The BCA assay (Walker, 1994) was used to quantify the protein concentration of mitochondria suspensions; solutions were diluted to a concentration of 0.2 mg/mL for use in all assays. For the complex I assay, mitochondria pellets were freeze-thawed on ice three times to increase enzyme accessibility. […] 20 μL mitochondria suspension was then added/mixed with a pipette to initiate the reaction. Immediately following the addition of mitochondria, absorbance was measured (complex I and II: 600 nm; complex III and IV: 550 nm) in 30 s intervals over 15 min. Enzymatic activity was determined in each reaction by plotting absorbance versus time and calculating the slope of the curve during the initial linear phase of the reaction. […] Percent activity of each complex was calculated by dividing the enzyme-specific activity of each well by the enzyme-specific activity of the corresponding solvent controls.
Complex II (succinate dehydrogenase) activity was assessed using the DCIP-coupled method previously described in Burns et al.[24].
For preliminary screens of hit compounds, compounds were screened at 100 μM; data are the average of at least three biological replicates. The complex I and II activity assays were used for additional dose-response experiments.

[2] = molecular target: C. elegans (N2) complex I (NADH:ubiquinone oxidoreductase) (Caenorhabditis elegans, UniProt P24887+Q93873+Q94360); experiment: biochemical; assay type: biochemical
Chain of C. elegans (N2) complex I (NADH:ubiquinone oxidoreductase) (Q94360 17-199): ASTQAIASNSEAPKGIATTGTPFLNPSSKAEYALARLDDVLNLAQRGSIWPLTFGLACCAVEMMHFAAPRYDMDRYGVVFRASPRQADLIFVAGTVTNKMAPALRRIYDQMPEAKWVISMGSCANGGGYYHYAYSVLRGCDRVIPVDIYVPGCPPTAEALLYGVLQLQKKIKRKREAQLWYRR
Chain of C. elegans (N2) complex I (NADH:ubiquinone oxidoreductase) (P24887 whole entry): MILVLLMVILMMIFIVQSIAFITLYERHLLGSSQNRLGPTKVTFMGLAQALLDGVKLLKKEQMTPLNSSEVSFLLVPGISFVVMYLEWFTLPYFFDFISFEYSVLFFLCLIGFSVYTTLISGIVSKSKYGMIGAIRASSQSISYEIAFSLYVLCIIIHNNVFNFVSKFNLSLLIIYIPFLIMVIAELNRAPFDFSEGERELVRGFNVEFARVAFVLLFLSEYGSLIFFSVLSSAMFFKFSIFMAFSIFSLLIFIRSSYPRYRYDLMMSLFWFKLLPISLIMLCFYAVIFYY
Chain of C. elegans (N2) complex I (NADH:ubiquinone oxidoreductase) (Q93873 31-482): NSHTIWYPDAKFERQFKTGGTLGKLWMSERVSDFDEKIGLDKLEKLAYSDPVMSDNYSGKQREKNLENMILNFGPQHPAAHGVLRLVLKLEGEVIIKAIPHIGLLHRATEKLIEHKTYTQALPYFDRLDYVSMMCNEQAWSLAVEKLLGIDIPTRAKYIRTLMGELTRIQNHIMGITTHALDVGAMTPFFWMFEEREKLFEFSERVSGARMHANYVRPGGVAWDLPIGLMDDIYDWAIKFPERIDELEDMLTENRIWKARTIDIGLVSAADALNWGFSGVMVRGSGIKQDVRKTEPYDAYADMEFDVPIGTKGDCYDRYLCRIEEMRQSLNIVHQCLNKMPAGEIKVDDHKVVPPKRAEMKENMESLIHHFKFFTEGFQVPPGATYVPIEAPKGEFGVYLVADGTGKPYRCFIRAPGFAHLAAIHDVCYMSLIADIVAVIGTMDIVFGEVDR
Procedure: as §1, §2
Chemical solutions were prepared in complex I assay buffer composed of 25 mM KPi buffer (pH 7.5), 3 mg/mL bovine serum albumin (BSA), 80 μM NADH, 60 μM decylubiquinone, 160 μM DCIP, 2 μM antimycin A and 2 mM KCN.
For preliminary screens of hit compounds, compounds were screened at 100 μM; data are the average of at least three biological replicates.

[3] = test system: C. elegans complex III (decylubiquinol-cytochrome C reductase); experiment: In vitro complex III activity assay, C. elegans mitochondria; assay type: biochemical, Caenorhabditis elegans; conditions: for CIII Activity: 100 μM inhibitor, in vitro activity relative to solvent control, N2 C. elegans mitochondria
Procedure: as §1, §2
Antimycin A-sensitive complex III (decylubiquinol-cytochrome C […]) activity was determined by measuring the reduction of cytochrome C (CytC) as optimized in Luo et al.[59]. Decylubiquinol for complex III assays was prepared fresh as described in Janssen and Boyle, 2019[60].

[4] = test system: C. elegans complex IV (cytochrome C oxidase); experiment: In vitro complex IV activity assay, C. elegans mitochondria; assay type: biochemical, Caenorhabditis elegans; conditions: for CIV Activity: 100 μM inhibitor, in vitro activity relative to solvent control, N2 C. elegans mitochondria
Procedure: as §1, §2
Complex IV (cytochrome C oxidase) activity was determined by following the oxidation of CytC in the protocol outlined by Janssen and Boyle, 2019[60]. Reduced CytC was prepared fresh by adding 1 μL increments of 1 M dithiothreitol to a 1 mM solution of CytC and vortexing. A colour change from brown to orange/pink signals when CytC has been reduced.

L1 wild-type C. elegans = conditions: for Screen "Hit" / Relative Motility: 50 μM; for Relative Motility: relative to DMSO controls, single biological replicate
[5] = 100 μM of NPD compound, C. elegans mitochondria, individual biological replicates, 100 µM
[6] = 100 µM compound, relative to solvent control, mean (SEM)
[7] = 100 μM of NPD compound, C. elegans mitochondria, individual biological replicates
[8] = 100 μM of NPD compound, C. elegans mitochondria, mean of four biological replicates
[9] = KCN survival assay, hit = relative motility below 0.25
[10] = worm motility 3 hours after the removal of KCN (endpoint)
[11] = hit = relative motility below 0.25 3 hours after removal of KCN
[12] = worm motility 3 hours after removal of KCN

## O=C(O)CC(=O)O [Malonate]
[1]; 30 s
  Absorbance DCIP [600nm], complex II: 0.481 and 0.464 and 0.499
[1]; 60 s
  Absorbance DCIP [600nm], complex II: 0.480 and 0.464 and 0.499
[1]; 90 s
  Absorbance DCIP [600nm], complex II: 0.480 and 0.464 and 0.499
[1]; 120 s
  Absorbance DCIP [600nm], complex II: 0.480 and 0.464 and 0.499
[1]; 150 s
  Absorbance DCIP [600nm], complex II: 0.480 and 0.463 and 0.499
[1]; 180 s
  Absorbance DCIP [600nm], complex II: 0.480 and 0.463 and 0.499
[1]; 210 s
  Absorbance DCIP [600nm], complex II: 0.480 and 0.463 and 0.498
[1]; 240 s
  Absorbance DCIP [600nm], complex II: 0.480 and 0.463 and 0.498
[1]; 270 s
  Absorbance DCIP [600nm], complex II: 0.479 and 0.462 and 0.498 and 0.486
[1]; 300 s
  Absorbance DCIP [600nm], complex II: 0.479 and 0.461 and 0.498 and 0.486
[1]; 330 s
  Absorbance DCIP [600nm], complex II: 0.478 and 0.461 and 0.497 and 0.485
[1]; 360 s
  Absorbance DCIP [600nm], complex II: 0.477 and 0.460 and 0.496 and 0.484
[1]; 390 s
  Absorbance DCIP [600nm], complex II: 0.476 and 0.460 and 0.495 and 0.483
[1]; 420 s
  Absorbance DCIP [600nm], complex II: 0.476 and 0.459 and 0.494 and 0.482
[1]; 450 s
  Absorbance DCIP [600nm], complex II: 0.475 and 0.459 and 0.494 and 0.482
[1]; 480 s
  Absorbance DCIP [600nm], complex II: 0.475 and 0.458 and 0.494 and 0.481
[1]; 510 s
  Absorbance DCIP [600nm], complex II: 0.474 and 0.457 and 0.493 and 0.481
[1]; 540 s
  Absorbance DCIP [600nm], complex II: 0.473 and 0.457 and 0.492 and 0.480
[1]; 570 s
  Absorbance DCIP [600nm], complex II: 0.473 and 0.457 and 0.492
[1]; 600 s
  Absorbance DCIP [600nm], complex II: 0.472 and 0.457 and 0.491
[1]; 630 s
  Absorbance DCIP [600nm], complex II: 0.471 and 0.457 and 0.491
[1]; 660 s
  Absorbance DCIP [600nm], complex II: 0.470 and 0.456 and 0.490
[1]; 690 s
  Absorbance DCIP [600nm], complex II: 0.470 and 0.456 and 0.490
[1]; 720 s
  Absorbance DCIP [600nm], complex II: 0.470 and 0.455 and 0.489
[1]; 750 s
  Absorbance DCIP [600nm], complex II: 0.470 and 0.455 and 0.489
[1]; 780 s
  Absorbance DCIP [600nm], complex II: 0.469 and 0.454 and 0.489
[1]; 810 s
  Absorbance DCIP [600nm], complex II: 0.469 and 0.454 and 0.489
[1]; 840 s
  Absorbance DCIP [600nm], complex II: 0.470 and 0.453 and 0.490
[1]; 870 s
  Absorbance DCIP [600nm], complex II: 0.469 and 0.453 and 0.489
[1]; 900 s
  Absorbance DCIP [600nm], complex II: 0.468 and 0.453 and 0.489

## CCCCCC[C@H]1C(=O)O[C@H](C)[C@H](NC(=O)c2cccc(NC=O)c2O)C(=O)O[C@@H](C)[C@@H]1OC(=O)CC(C)C [Antimycin A, reference compound]
[2]; 100 µM compound, relative to solvent control, mean (SEM), read-out: % Activity Complex I
  activity at 100 µM: 117%
[2]; 100 μM inhibitor, in vitro activity relative to solvent control, N2 C. elegans mitochondria, Mean, read-out: CI Activity
  activity at 100 µM: 117%
[2]; 100 μM inhibitor, in vitro activity relative to solvent control, N2 C. elegans mitochondria, single replicate, read-out: CI Activity
  activity at 100 µM: 119%
[2]; [5]
  Percent in vitro activity, Complex I (single replicate Rep1-Rep4): 116.806% and 115.361% and 116.592%
[2]; 100 μM of NPD compound, C. elegans mitochondria, individual biological replicates, read-out: Percent in vitro activity, Complex I (single replicate Rep1-Rep4)
  activity at 100 µM: 119%
[2]; 100 μM of NPD compound, C. elegans mitochondria, mean of four biological replicates, read-out: Percent in vitro activity, Complex I (Mean)
  activity at 100 µM: 117%
[1]; 100 µM compound, relative to solvent control, mean (SEM), read-out: % Activity Complex II
  activity at 100 µM: 79.5%
[1]; 100 μM inhibitor, in vitro activity relative to solvent control, N2 C. elegans mitochondria, Mean, read-out: CII Activity
  activity at 100 µM: 79.5%
[1]; [5]
  Percent in vitro activity, Complex II (single replicate Rep1-Rep4): 114.678% and 73.200% and 61.398% and 68.876%
[1]; 100 μM of NPD compound, C. elegans mitochondria, mean of four biological replicates, read-out: Percent in vitro activity, Complex II (Mean)
  activity at 100 µM: 79.5%
[3]; [6]
  % Activity Complex III: 0.00 (0.0) %
[3]; Mean
  CIII Activity: 0.000%
[3]; single replicate
  CIII Activity: 0.000%
[3]; [7]
  Percent in vitro activity, Complex III (single replicate Rep1-Rep4): 0.000%
[3]; [8]
  Percent in vitro activity, Complex III (Mean): 0.000%
[4]; [6]
  % Activity Complex IV: 94.00 (1.10) %
[4]; Mean
  CIV Activity: 94.002%
[4]; single replicate
  CIV Activity: 97.456% and 95.348% and 87.857% and 95.349%
[4]; [7]
  Percent in vitro activity, Complex IV (single replicate Rep1-Rep4): 97.456% and 95.348% and 87.857% and 95.349%
[4]; [8]
  Percent in vitro activity, Complex IV (Mean): 94.002%

## CC(C)(C)c1ccc(Cn2c(N)nc3ccccc32)cc1 [Compound 5564334]
L1 wild-type C. elegans; [9]
  Screen "Hit": Y (hits were identified as compounds that reduced relative motility below 0.25 (75% reduction))
L1 wild-type C. elegans; [10]
  Relative Motility: 0.130

## COc1ccc2c(c1)nc(SCc1ccccc1)n2C [Compound 5649512]
L1 wild-type C. elegans; [11]
  Screen "Hit": Y (hits were identified as compounds that reduced relative motility below 0.25 (75% reduction))
L1 wild-type C. elegans; [12]
  Relative Motility: 0.190

## C=CCn1c(NCc2ccccc2OC)nc2ccccc21 [Compound 7419109]
L1 wild-type C. elegans; [11]
  Screen "Hit": Y (hits were identified as compounds that reduced relative motility below 0.25 (75% reduction))
L1 wild-type C. elegans; [12]
  Relative Motility: 0.078

## Cc1ccc2[nH]c(-c3ccccc3N)nc2c1 [Compound 5534607]
L1 wild-type C. elegans; active (hit) or inactive (non) at 50 μM in C. elegans assay of RQ-dependent metabolism
  Hit: non

## Cc1nc2cc(Cl)ccc2n1-c1ccccc1 [Compound 5119819]
L1 wild-type C. elegans; [9]
  Screen "Hit": Y (hits were identified as compounds that reduced relative motility below 0.25 (75% reduction))
L1 wild-type C. elegans; [10]
  Relative Motility: 0.230
